Entries after “also recorded” stand apart in the source; their conditions may differ. Where two headings read alike, the source gives them in different places. Bridge positions count the residues as written; N and C are the ends. Square brackets hold non-standard residues; d marks the D form. Peptide text beside a SMILES is read from it. hArg = N=C(N)NCCCC[C@H](N)C(=O)O; Mpa = O=C(O)CCS
How the values were obtained:
P2Y12 mRNA = assay: P2Y12 morpholino knockdown in ADP thrombosis assay; type: in vivo, zebrafish; conditions: 2.4 ng morpholino, 90 pmol ADP
Source text: (§1) For some experiments (aspirin, Reopro, Integrilin, Ticlopidine and hirudin), larvae were scored according to the number of stationary platelets observed. The counts were done for sections of the larvae (FIG. 2) and later totaled for the larvae. […] In these experiments (morpholino), control larvae (ADP alone) had no moving platelets.
(§2) P2Y12 (5′-[…]-3′) and GPIIb (5′-[…]-3′) morpholinos were purchased from Gene Tools (Philomath, Oreg.). Both of these morpholinos were designed to recognize the first 25 bases of coding sequence. Morpholino—(0.1 mM stock contained in 0.2% phenol red) or mock—(0.2% phenol red) injections were performed in one to four cell stage of homozygous TG(GPIIb:eGFP) zebrafish. These embryos were checked 2-4 hours after injection to eliminate non-fertilized or poorly developed eggs. The embryos were placed into Holtfretter's solution at 27° C. until used in the thrombosis assay (5-6 dpf). For the thrombosis assay, larvae were injected with 90 pmol of ADP, a concentration that immobilized all platelets in the larvae. A positive or negative effect was designated for each larva when there were moving or no moving platelets, respectively, after ADP challenge.

GPIIb mRNA = assay: GPIIb morpholino knockdown in ADP thrombosis assay; type: in vivo, zebrafish; conditions: 2.4 ng morpholino at 1-4 cell stage, 90 pmol ADP at 5-6 dpf, n=34
Source text: as §1, §2

platelets = assay: In vivo thrombosis assay: thrombotic agent injected into heart cavity of TG(GPIIb:eGFP) larvae; parameters: species or system zebrafish
Experimental: Only larvae homozygous for the GPIIb-eGFP transgene, were used for the assay. […] Injection of compounds into the heart cavity of larvae was performed using a glass-pulled capillary needle ( 15 μm in diameter at the tip) attached to a microinjector. Phenol red (0.2%) was routinely used for all injections to ensure accurate injection into the heart cavity. All larvae were anaesthetized with tricaine during the injection and returned to fresh fish water before analysis. Fluorescence was observed using a stereomicroscope with a GFP specific filter set. […] The counts were done for sections of the larvae (FIG. 2) and later totaled for the larvae. […] In these experiments (morpholino), control larvae (ADP alone) had no moving platelets. TG(GPIIb:GFP) zebrafish were bred to produce homozygous TG(GPIIb:eGFP) embryos. […] At 6 dpf, the larvae have developed a swim bladder and most (or all) of their yolk sac has disappeared.

zebrafish larvae = type: in vivo
Experimental: Only larvae homozygous for the GPIIb-eGFP transgene, were used for the assay. Soaking experiments with anti-thrombotic compounds were initiated when larvae were 5 dpf and injections with thrombotic agents were performed the next day. Injection of compounds into the heart cavity of larvae was performed using a glass-pulled capillary needle (˜15 μm in diameter at the tip) attached to a microinjector. Phenol red (0.2%) was routinely used for all injections to ensure accurate injection into the heart cavity. All larvae were anaesthetized with tricaine during the injection and returned to fresh fish water before analysis. Fluorescence was observed using a stereomicroscope with a GFP specific filter set.

[1] = test system: ADP-induced platelet aggregation; assay: In vivo anti-thrombotic assay: ADP-induced aggregate formation in TG(GPIIb:eGFP) larvae; parameters: species or system zebrafish; conditions: for platelet aggregation in zebrafish (summary statement): in vivo
Experimental: (§3) Only larvae homozygous for the GPIIb-eGFP transgene, were used for the assay. […] Injection of compounds into the heart cavity of larvae was performed using a glass-pulled capillary needle ( 15 μm in diameter at the tip) attached to a microinjector. Phenol red (0.2%) was routinely used for all injections to ensure accurate injection into the heart cavity. All larvae were anaesthetized with tricaine during the injection and returned to fresh fish water before analysis. Fluorescence was observed using a stereomicroscope with a GFP specific filter set. […] The counts were done for sections of the larvae (FIG. 2) and later totaled for the larvae. […] In these experiments (morpholino), control larvae (ADP alone) had no moving platelets.

[2] = test system: thrombin-induced platelet aggregation; assay: In vivo anti-thrombotic assay: thrombin-induced aggregate formation in TG(GPIIb:eGFP) larvae; parameters: species or system zebrafish
Experimental: as §3

[3] = 5 dpf larvae soaked overnight in varying concentrations, 90 pmol ADP next day
[4] = Plavix approximately 0.2-1 μg/ml overnight
[5] = GPIIb-eGFP transgenic (homozygous), zebrafish, in vivo
[6] = thrombin 3.38 ng (0.018 NIH unit)

5′-AGCTGAGCTGCGTTGTTTGCTCCAT-3′ (morpholino, further chemistry not given here) [P2Y12 morpholino]
effectiveness (larvae with moving platelets after ADP) (P2Y12 mRNA): 50%

5′-GACTGAATTCCAGTTTCTTGTCCAT-3′ (morpholino backbone, further chemistry not given here) [GPIIb morpholino]
tested larvae with moving platelets after ADP injection (GPIIb mRNA): 76.5%

Nc1ncnc2c1ncn2[C@@H]1O[C@H](COP(=O)(O)OP(=O)(O)O)[C@@H](O)[C@H]1O [ADP]
number of macroaggregates compared with phenol red-injected group (platelets; 90 pmol ADP): not significant | platelet movement after injection (platelets; 90 pmol ADP into heart cavity): most or all of the platelets within the larvae stopped moving; also recorded: a complete inhibition of platelet movement was observed | time until platelets stopped moving (platelets; 90 pmol ADP into heart cavity): ≤ 5 min | microaggregates found in each injected larva (platelets; 90 pmol ADP into heart cavity, 6-7 dpf larvae, n=16): about 38±3 microaggregates | duration of the effect (platelets; 90 pmol ADP, observed for up to 8 hours): several hours | platelet movement after injection (platelets; ADP, concentrations lower than 90 pmol): did not induce a complete inhibition of platelet movement | lethality (beating heart) (zebrafish larvae; 90 pmol ADP into heart cavity): not lethal | time within which the larva died (zebrafish larvae; 180 pmol ADP into heart cavity, n=8): 5 to 10 min

CCCCS(=O)(=O)N[C@@H](Cc1ccc(OCCCCC2CCNCC2)cc1)C(=O)O [Aggrastat, tirofiban]
ADP-induced aggregation ([1]; Aggrastat 100 μg/ml soak 24 hours plus 240 ng injected 10 min before ADP): inhibited | ADP-induced aggregation ([1]; Aggrastat 10-50 μg/ml overnight): ineffective | ADP-induced aggregate formation ([1]; Aggrastat soaking alone or injection alone): did not antagonize

N=C(N)NCCCC[C@@H]1NC(=O)CCSSC[C@@H](C(N)=O)NC(=O)[C@@H]2CCCN2C(=O)[C@H](Cc2c[nH]c3ccccc23)NC(=O)[C@H](CC(=O)O)NC(=O)CNC1=O [Integrilin, eptifibatide] ([Mpa][hArg]GDWPC-NH2; disulfide 1-7)
ADP-induced microaggregate formation [1, 3]: dose-dependent inhibition; also recorded: dose-dependently prevented | number of platelet aggregates compared to control group ([1]; Integrilin 0.25-1.0 mg/ml overnight soak): no change | survival after overnight treatment (zebrafish larvae; Integrilin 5 mg/ml): all larvae died

COC(=O)[C@H](c1ccccc1Cl)N1CCc2sccc2C1 [Plavix, Clopidogrel]
ADP-induced aggregate formation [1, 4]: partial inhibition | platelet aggregation in zebrafish (summary statement) [1]: effective at inhibiting | lethal dose (zebrafish larvae; [5]): ≥ 5 µg/mL | aggregation induced by a high concentration of thrombin [2, 4]: not effective

Clc1ccccc1CN1CCc2sccc2C1 [Ticlopidine]
concentration at which larvae did not survive the overnight treatment (zebrafish larvae; [5]): ≥ 10 µM

CC(=O)Oc1ccccc1C(=O)O [aspirin, acetylsalicylic acid]
ADP-induced microaggregate formation [1, 3]: prevented | microaggregate count within control phenol red-injected larvae ([1]; aspirin 115 μg/ml, no ADP): trend toward a decrease | ADP-induced microaggregate formation ([1]; aspirin 95 and 105 μg/ml, overnight soak before ADP challenge): partially prevented | platelet aggregation in zebrafish (summary statement) [1]: effective at inhibiting | survival after overnight treatment (zebrafish larvae; aspirin 125 μg/ml): the larvae died | effect on platelet movement or development of the larvae (zebrafish larvae; aspirin alone): no adverse effect

CNC[C@H](O)c1ccc(O)c(O)c1 [epinephrine]
effect of collagen on platelet aggregation (platelets; epinephrine 18 pg in conjunction with collagen): did not enhance

CC1CC(=O)NN=C1c1cc(-n2ccnc2)cs1 (centres unmarked) [motapizone]
ADP-induced aggregation ([1]; motapizone 50 μM overnight soak): Partial inhibition | ADP-induced microaggregate formation ([1]; motapizone 250 and 100 μM, overnight soak of 5 dpf larvae): effective in blocking | action of ADP on platelet aggregation ([1]; motapizone injected 5 min before ADP challenge): ineffective | ADP-induced aggregation ([1]; motapizone, concentrations lower than 50 μM): ineffective | platelet aggregation in zebrafish (summary statement) [1]: decreases platelet aggregation | platelet aggregation in zebrafish (summary statement) ([1]; listed as Motapizone): effective in reducing

Reopro: human/murine chimeric antibody, GPIIb/IIIa antagonist
ADP-induced microaggregate formation ([1]; Reopro 0.5-5 μg/ml overnight soak plus 120 ng injected 10 min before ADP): dose-dependently inhibited | ADP-induced aggregation of platelets ([1]; Reopro injection alone (120 ng or less), no overnight soak): did not antagonize | ADP-induced microaggregate formation ([1]; Reopro overnight soak plus 60 ng injected): no effect

hirudin
ADP-induced aggregation ([1]; hirudin 0.029 unit, 90 pmol ADP): did not have any effect | thrombin-induced aggregate formation ([2]; hirudin 0.029 unit given simultaneously with thrombin 0.018 NIH unit): no aggregation was observed; also recorded: inhibited

thrombin
duration of arrested platelet movement (platelets; [6]): 30 min | time after which platelets began to move more freely (platelets; [6]): ≤ 25 min | platelet aggregation / arrest after injection (platelets; thrombin 3.38 ng (0.018 NIH unit) into heart cavity): induced platelet aggregation; also recorded: most of the platelets were arrested | platelets arrested (platelets; thrombin 3.38 ng (0.018 NIH unit), 5 min after injection, n=15): 85-90% | platelet mobility (recovery) (platelets; thrombin 3.38 ng, within an hour after injection): most platelets were mobile

From patent publication US20050120392A1, “Transgenic zebrafish models for thrombosis” (priority 2002, published 2005)
